{"source": "paper PMC6368365", "about": "“Didehydro-Cortistatin A Inhibits HIV-1 by Specifically Binding to the Unstructured Basic Region of Tat” (mBio, 2019)", "key": {"[1]": {"system": "export function of HIV Rev", "experiment": "Viral mRNA export in NL4-3-infected CEM-SS cells (qRT-PCR)", "assay_type": "cell-based, HIV-1", "conditions": "dCA 30 nM, 24 hours", "description": "If dCA were to bind the basic domain of Tat in its disordered form, then one would predict it might also bind to other basic peptide sequences and block their functions. The two well-known proteins that share a similar basic domain with Tat are HIV-1 Rev protein and the cellular protein Hexim-1 (Fig. 3A). As such, we investigated whether dCA could inhibit these similar basic domain functions. The basic domain of Rev is responsible for its nuclear localization ([31]); therefore, we assessed whether dCA could impact the subcellular localization of Rev (Fig. 3B) as previously shown for Tat ([10]). We transfected HeLa-CD4-LTR-Luc cells with a plasmid expressing FLAG-tagged Rev and assessed Rev localization in the presence of 100 nM dCA. […] Twenty-four hours later, cells were collected, and total, nuclear, and cytoplasmic mRNAs were extracted, reverse transcribed, and quantified by quantitative real-time PCR (qRT-PCR).\nCells were infected with the NL4-3 strain for 24 hours. […] Total, nuclear, and cytoplasmic mRNAs were extracted, and viral messages were measured by qRT-PCR. […] Statistical significance was determined using one-way ANOVA with post hoc Tukey’s test, comparing the DMSO condition to the other conditions. ***, P < 0.0001; **, P < 0.001; *, P < 0.01. […] Seventy hours later, viability was measured. […]"}, "NL4-3 strain": {"system": "NL4-3 strain", "experiment": "HIV-1 NL4-3 infection of HeLa-CD4-LTR-LacZ reporter cells, LacZ measured 72 h later", "assay_type": "cell-based", "conditions": "Human immunodeficiency virus 1, NL43", "description": "To understand the structure-function relationship of the dCA molecule with respect to our structural model, we synthesized and characterized the ability of 11 analogs of dCA to inhibit HIV infection (Table 2). […] We used HeLa-CD4 cells stably expressing the HIV-1 5′ LTR driving β-galactosidase production (HeLa-CD4-LTR-LacZ cells) as a reporter for the infection with isolate NL4-3. Table 2 summarizes the IC50, 50% cytotoxic concentration (CC50), and therapeutic index (TI) for each compound. The loss of dCA activity was directly associated with the positioning and the chemical environment of the azote on the F ring and the presence of oxygen in ring B. Moreover, the E-F “skeleton angle” and the distance between the A-B-C-D and F rings affected the activity by more than 50-fold (analogs 7 and 10).\nThe activity of Tat in HeLa-CD4-LTR-Luc and OM10.1 cells was verified by a transactivation assay as described in reference. In HeLa-CD4-LTR-LacZ cells, the assay was performed as described in reference. A detailed protocol is provided in Text S1.\nTransactivation assay. In HeLa-CD4-LTR-Luc cells and OM10.1 cells. The activity of Tat was verified by a transactivation assay as previously reported (13). Briefly, HeLa-CD4-LTR-Luc cells and OM10.1 were plated at 1×10^5 and 8x10^5 cells per well of a 6-well plate respectively. The following day, recombinant Tat protein was added to the cells in culture media without serum and in the presence of 100 μM of Chloroquine. Five hours later, serum was added at 5 % to the culture media. Cells were lysed 24 hrs later, protein concentration determined by Bradford assay and luciferase activity was measured for HeLa-CD4-LTR-Luc cells. Results corresponding to luciferase activity per protein concentration of each sample are shown as relative light unit (RLU). As for the OM10.1 cells, RNA was extracted using the RNA extraction kit (Qiagen) and DNA contamination was removed using Turbo-DNAse kit (Ambion). First-strand cDNA was synthesized using SuperscriptIII^TM first-strand cDNA kit (Invitrogen) and random hexamers as first-strand primers. qRT-PCR was performed with an aliquot of cDNA as template, using LightCycler? 480 SYBR Green I Master in a 20 µL reaction according to the manufacturer’s instructions. The mRNAs from each sample were used as negative control. Primer sequences for GAPDH (13) and all viral mRNAs as previously described (59). In HeLa-CD4-LTR-LacZ cells. It was performed as previously described (10). Briefly, cells were plated at 1×10^4 cells per well of a 96-well plate. Twenty-four hrs later HIV-1 NL4-3 strain was added in the presence of testing compound or DMSO. Seventy-two hrs post infection, cells were disrupted in lysis buffer (60 mM Na2HPO4, 40 mM NaH2PO4, 10 mM KCl, 10 mM MgSO4, 2.5 mM EDTA, 50 mM ß-mercaptoethanol, 0.125 % Nonidet P-40) and a quantitative chlorophenol red-ß-D-galactopyranoside (CPRG)-based (Boehringer Mannheim) assay was performed. The cell extracts were incubated in a reaction buffer (0.9 M phosphate buffer [pH 7.4], 9 mM MgCl2, 11 mM ß-mercaptoethanol, 7 mM CPRG) until a red color developed and measured with an LP400 (Becton Dickinson) plate reader at 572 nm."}}, "note": "Read-outs that look alike come from different tables or passages of the source."}
{"compound": "CN(C)C1CC23CCC4(O2)C(=CCC2(C)C(c5ccc6ccncc6c5)=CCC24)C=C3C(O)C1O", "note": "(stereo not drawn) [dCA, didehydro-cortistatin A]", "values": [{"measurement": "export function of HIV Rev in CEM-SS cells", "setting": "[1]", "result": "does not perturb the export function of HIV Rev in CEM-SS cells"}, {"measurement": "IC50", "setting": "NL4-3 strain; HeLa-CD4-LTR-LacZ cells infected with NL4-3, LacZ at 72 h, mean ± SD, n = 2 to 3, read-out: IC50", "result": "600 ± 300", "unit": "pM"}, {"measurement": "IC50", "setting": "NL4-3 strain; span of Table 2 and earlier value, read-out: dCA inhibitory activity in cell-based assays", "result": "600 to 2000", "unit": "pM"}]}
